Among the data in patent US20150148377A1, “Quinoline Derivatives” (NOVARTIS AG, priority 2011, published 2015) are IC50 values, retold here.

In general, IC50 refers to the concentration at which inhibition is half-maximal.

The target in one assay is T1, PI3K alpha (Homo sapiens, UniProt P42336).
T1 construct: His tag (C); made in house; host or cells: baculovirus; Tn5 (Trichoplusia ni) or TiniPro insect cells
The assay can be described thus: Enzymatic PI3K alpha isoform inhibition (lipid kinase activity, Kinase-Glo). The format is biochemical. Conditions: enzymatic assay. On the procedure: The kinase reaction is performed in a final volume of 50 μl per well of a half area COSTAR, 96 well plate. The final concentrations of ATP and phosphatidyl inositol in the assay are 5 μM and 6 μg/mL, respectively. The reaction is started by the addition of PI3 kinase, e.g. PI3 kinase δ.
(§1) In a more preferred assay, the kinase reaction is performed in a final volume of 10 μl per well of a low volume non-binding CORNING, 384 well black plate (Cat. No. #3676). The final concentrations of ATP and phosphatidyl inositol (PI) in the assay are 1 μM and 10 μg/mL, respectively. The reaction is started by the addition of ATP.
(§2) The components of the assay are added per well as follows:
(§3) 50 nl test compounds in 90% DMSO per well, in columns 1-20, 8 concentrations (1/3 and 1/3.33 serial dilution step) in single. • Low control: 50 nl of 90% DMSO in half the wells of columns 23-24 (0.45% in final). • High control: 50 nl of reference compound (e.g. compound of Example 7 in WO 2006/122806) in the other half of columns 23-24 (2.5 μM in final). • Standard: 50 nl of reference compound as just mentioned diluted as the test compounds in columns 21-22. • 20 mL ‘buffer’ are prepared per assay: • 200 μl of 1M TRIS HCl pH7.5 (10 mM in final) • 60 μl of 1M MgCl2 (3 mM in final) • 500 μl of 2M NaCl (50 mM in final) • 100 μl of 10% CHAPS (0.05% in final) • 200 μl of 100 mM DTT (1 mM in final) • 18.94 mL of nanopure water • 10 mL ‘PI’ are prepared per assay: • 200 μl of 1 mg/mL 1-alpha-Phosphatidylinositol (Liver Bovine, Avanti Polar Lipids Cat. No. 840042C MW=909.12) prepared in 3% OctylGlucoside (10 μg/mL in final) • 9.8 mL of ‘buffer’ • 10 mL ‘ATP’ are prepared per assay: • 6.7 μl of 3 mM stock of ATP giving a final concentration of 1 μM per well • 10 mL of ‘buffer’ • 2.5 mL of each PI3K construct are prepared per assay in ‘PI’ with the following final concentration: • 10 nM PI3K alfa EMV B1075 • 25 nM beta EMV BV949 • 10 nM delta EMV BV1060 • 150 nM gamma EMV BV950 • 5 μl of ‘PI/PI3K’ are added per well. • 5 μl ‘ATP’ are added per well to start the reaction. • The plates are then incubated at room temperature for 60 minutes (alfa, beta, delta) or 120 minutes (gamma). • The reaction is terminated by the addition of 10 μl Kinase-Glo (Promega Cat. No. #6714). • The assay plates are read after 10 minutes in Synergy 2 reader (BioTek, Vermont USA) with an integration time of 100 milliseconds and sensitivity set to 191. • Output: The High control is around 60'000 counts and the Low control is 30'000 or lower • This luminescence assay gives a useful Z′ ratio between 0.4 and 0.7
(§4) IC50 is determined by a four parameter curve fitting routine that comes along with “excel fit”. A four parameter logistic equation is used to calculate IC50 values (IDBS XLfit) of the percentage inhibition of each compound at 8 concentrations (usually 10, 3.0, 1.0, 0.3, 0.1, 0.030, 0.010 and 0.003 μM). Alternatively, IC50 values are calculated using idbsXLfit model 204, which is a 4 parameter logistic model.
(§5) Yet alternatively, for an ATP depletion assay, compounds of the formula I to be tested are dissolved in DMSO and directly distributed into a white 384-well plate at 0.5 μl per well. To start the reaction, 10 μl of 10 nM PI3 kinase and 5 μg/mL 1-alpha-phosphatidylinositol (PI) are added into each well followed by 10 μl of 2 μM ATP. The reaction is performed until approx 50% of the ATP is depleted, and then stopped by the addition of 20 μl of Kinase-Glo solution (Promega Corp., Madison, Wis., USA). The stopped reaction is incubated for 5 minutes and the remaining ATP is then detected via luminescence. IC50 values are then determined.
(Kinase-Glo reads ATP consumption through a luciferase reaction.)

In another assay the target is T2, PI3K delta (Homo sapiens, UniProt O00329).
T2 construct: for the full-length p110-d subunit are generated and fused by overlapping PCR; His tag (C); made in house; host or cells: baculovirus; Tn5 (Trichoplusia ni) or TiniPro insect cells
T2 sequence (O00329 with tags, fused parts or gaps limits assumed): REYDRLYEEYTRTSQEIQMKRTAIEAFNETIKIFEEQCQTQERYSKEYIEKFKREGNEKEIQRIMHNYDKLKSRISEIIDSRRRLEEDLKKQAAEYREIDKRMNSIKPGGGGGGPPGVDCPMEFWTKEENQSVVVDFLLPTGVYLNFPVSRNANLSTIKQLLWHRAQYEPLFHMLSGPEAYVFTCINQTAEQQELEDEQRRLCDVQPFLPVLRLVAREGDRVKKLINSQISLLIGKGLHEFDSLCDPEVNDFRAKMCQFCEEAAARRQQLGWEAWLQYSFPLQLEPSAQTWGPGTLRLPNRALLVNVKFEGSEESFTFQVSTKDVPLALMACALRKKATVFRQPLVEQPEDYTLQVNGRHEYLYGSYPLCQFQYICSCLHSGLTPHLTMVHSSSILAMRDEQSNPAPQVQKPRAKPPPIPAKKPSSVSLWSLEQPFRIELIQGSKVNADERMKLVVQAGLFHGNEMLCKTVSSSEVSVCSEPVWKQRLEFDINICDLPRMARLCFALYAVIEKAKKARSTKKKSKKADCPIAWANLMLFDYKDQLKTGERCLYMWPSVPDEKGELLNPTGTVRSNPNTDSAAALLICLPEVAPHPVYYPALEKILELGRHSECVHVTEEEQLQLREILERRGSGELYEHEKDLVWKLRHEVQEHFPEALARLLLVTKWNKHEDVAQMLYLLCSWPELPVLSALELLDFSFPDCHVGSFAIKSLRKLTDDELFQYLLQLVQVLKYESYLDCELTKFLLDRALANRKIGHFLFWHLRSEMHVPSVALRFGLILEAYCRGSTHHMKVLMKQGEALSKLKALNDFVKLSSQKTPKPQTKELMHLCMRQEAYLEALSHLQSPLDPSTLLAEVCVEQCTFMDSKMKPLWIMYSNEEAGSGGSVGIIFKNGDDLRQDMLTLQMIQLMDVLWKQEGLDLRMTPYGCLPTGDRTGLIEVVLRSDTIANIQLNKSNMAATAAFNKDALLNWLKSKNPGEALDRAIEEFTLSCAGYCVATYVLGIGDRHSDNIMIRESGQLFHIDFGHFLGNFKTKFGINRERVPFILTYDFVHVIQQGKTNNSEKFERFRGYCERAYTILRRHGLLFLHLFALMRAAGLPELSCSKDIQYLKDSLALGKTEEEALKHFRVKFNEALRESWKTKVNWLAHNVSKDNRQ
Briefly: Enzymatic PI3K delta isoform inhibition (lipid kinase activity, Kinase-Glo). Type of assay: biochemical. The settings on record: enzymatic assay. The protocol: as §1, §2, §3, §4, §5

T1 sequence (P42336 with tags, fused parts or gaps limits assumed): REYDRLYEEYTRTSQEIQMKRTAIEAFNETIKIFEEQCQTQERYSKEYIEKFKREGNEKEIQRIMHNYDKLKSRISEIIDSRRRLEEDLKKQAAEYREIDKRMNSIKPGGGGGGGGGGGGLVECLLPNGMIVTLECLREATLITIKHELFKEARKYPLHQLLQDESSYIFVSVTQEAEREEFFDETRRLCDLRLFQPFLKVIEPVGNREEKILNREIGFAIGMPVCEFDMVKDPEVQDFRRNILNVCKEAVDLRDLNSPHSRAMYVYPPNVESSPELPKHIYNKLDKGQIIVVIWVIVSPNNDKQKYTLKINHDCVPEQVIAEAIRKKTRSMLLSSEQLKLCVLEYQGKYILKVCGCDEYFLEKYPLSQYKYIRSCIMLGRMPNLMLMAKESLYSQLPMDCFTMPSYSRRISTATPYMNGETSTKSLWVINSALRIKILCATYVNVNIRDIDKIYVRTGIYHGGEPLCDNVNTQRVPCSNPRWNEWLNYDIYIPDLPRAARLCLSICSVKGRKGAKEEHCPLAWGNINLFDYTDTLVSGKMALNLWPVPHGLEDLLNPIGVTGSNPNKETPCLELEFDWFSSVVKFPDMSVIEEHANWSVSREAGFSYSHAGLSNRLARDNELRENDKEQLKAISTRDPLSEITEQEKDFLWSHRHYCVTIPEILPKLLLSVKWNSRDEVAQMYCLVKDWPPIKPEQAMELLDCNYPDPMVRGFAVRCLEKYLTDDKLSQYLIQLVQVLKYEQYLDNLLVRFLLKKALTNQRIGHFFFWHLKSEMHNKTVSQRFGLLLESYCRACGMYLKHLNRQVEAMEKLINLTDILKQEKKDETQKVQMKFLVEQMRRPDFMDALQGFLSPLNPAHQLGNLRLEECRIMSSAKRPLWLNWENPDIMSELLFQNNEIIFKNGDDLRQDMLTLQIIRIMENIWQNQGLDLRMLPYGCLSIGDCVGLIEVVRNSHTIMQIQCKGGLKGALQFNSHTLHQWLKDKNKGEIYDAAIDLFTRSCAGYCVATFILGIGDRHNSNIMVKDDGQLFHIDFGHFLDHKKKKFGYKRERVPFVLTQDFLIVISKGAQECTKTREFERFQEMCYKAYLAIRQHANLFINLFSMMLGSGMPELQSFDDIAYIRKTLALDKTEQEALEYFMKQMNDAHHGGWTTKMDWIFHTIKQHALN

Take `COc1ncc(-c2ccnc3ccc(O[C@H]4CCN(C(=O)C5CCS(=O)(=O)CC5)C4)cc23)cc1CF` [Example A9, (1,1-Dioxo-hexahydro-1lambda*6*-thiopyran-4-yl)-{(S)-3-[4-(5-fluoromethyl-6-methoxy-pyridin-3-yl)-quinolin-6-yloxy]-pyrrolidin-1-yl}-methanone]: the IC50 amounted to 172 nM on PI3K alpha and 4 nM on PI3K delta.

As to `COc1ncc(-c2ccnc3ccc(O[C@H]4CCN(C(=O)C5CCOCC5)C4)cc23)cc1C#N` [Example A3, 2-Methoxy-5-{6-[(S)-1-(tetrahydro-pyran-4-carbonyl)-pyrrolidin-3-yloxy]-quinolin-4-yl}-nicotinonitrile], the IC50 at PI3K alpha worked out at 426 nM; at PI3K delta, 3 nM.

With `CS(=O)(=O)c1ncc(-c2ccnc3ccc(O[C@H]4CCN(C(=O)C5CCOCC5)C4)cc23)cc1C(F)F` [Example A17, {(S)-3-[4-(5-Difluoromethyl-6-methanesulfonyl-pyridin-3-yl)-quinolin-6-yloxy]-pyrrolidin-1-yl}-(tetrahydro-pyran-4-yl)-methanone], the IC50 came to 341 nM at PI3K alpha and 7 nM on PI3K delta.

As for `COc1ncc(-c2ccnc3ccc(O[C@H]4CCN(C(=O)c5ccc(=O)[nH]c5)C4)cc23)cc1C` [Example A5, 5-{(S)-3-[4-(6-Methoxy-5-methyl-pyridin-3-yl)-quinolin-6-yloxy]-pyrrolidine-1-carbonyl}-1H-pyridin-2-one], the IC50 at PI3K alpha was 231 nM; at PI3K delta, less than 3 nM.

Consider `COc1ncc(-c2ccnc3ccc(O[C@H]4CCN(C(=O)C5CCOCC5)C4)cc23)cc1C` [Example A14, {(S)-3-[4-(6-Methoxy-5-methyl-pyridin-3-yl)-quinolin-6-yloxy]-pyrrolidin-1-yl}-(tetrahydro-pyran-4-yl)methanone], for which the IC50 worked out at 253 nM at PI3K alpha and 6 nM on PI3K delta.

Consider `COc1ncc(-c2ccnc3ccc(O[C@H]4CCN(C(=O)C5CCOCC5)C4)c(C)c23)cc1C#N` [Example B8, 2-Methoxy-5-{5-methyl-6-[(S)-1-(tetrahydro-pyran-4-carbonyl)-pyrrolidin-3-yloxy]-quinolin-4-yl}-nicotinonitrile], for which the IC50 at PI3K alpha came to 1440 nM; on PI3K delta, 60 nM.

Turning to `COc1ncc(-c2ccnc3ccc(O[C@H]4CCN(C(=O)C5CCS(=O)(=O)CC5)C4)cc23)cc1C(F)(F)F` [Example A8, (1,1-Dioxo-hexahydro-1lambda*6*-thiopyran-4-yl)-{(S)-3-[4-(6-methoxy-5-trifluoromethyl-pyridin-3-yl)-quinolin-6-yloxy]-pyrrolidin-1-yl}-methanone], the IC50 at PI3K alpha was 131 nM; on PI3K delta it was 4 nM.

As for `COc1ncc(-c2ccnc3ccc(O[C@H]4CCN(C(=O)c5cn(C)cn5)C4)cc23)cc1C#N` [Example A30, 2-Methoxy-5-{6-[(S)-1-(1-methyl-1H-imidazole-4-carbonyl)-pyrrolidin-3-yloxy]-quinolin-4-yl}-nicotinonitrile], the IC50 on PI3K alpha worked out at 381 nM; on PI3K delta, 19.5 nM.

For `COc1ncc(-c2ccnc3ccc(O[C@H]4CCN(C(=O)C5CCN(C(C)=O)CC5)C4)cc23)cc1C(F)(F)F` [Example A16, 1-(4-{(S)-3-[4-(6-Methoxy-5-trifluoromethyl-pyridin-3-yl)-quinolin-6-yloxy]-pyrrolidine-1-carbonyl}-piperidin-1-yl) ethanone], the results for the IC50 on PI3K alpha and at PI3K delta were 207 nM and 7 nM, respectively.

`COc1ncc(-c2ccnc3ccc(O[C@H]4CCN(C(=O)c5ccc(=O)[nH]c5)C4)c(C)c23)cc1C(F)F` [Example B2, 5-{(S)-3-[4-(5-Difluoromethyl-6-methoxy-pyridin-3-yl)-5-methyl-quinolin-6-yloxy]-pyrrolidine-1-carbonyl}-1H-pyridin-2-one]: the IC50 was found to be 33 nM on PI3K alpha and 4 nM at PI3K delta.

As for `COc1ncc(-c2ccnc3ccc(O[C@H]4CCN(C(=O)[C@@H]5CCN(C(C)=O)C5)C4)cc23)cc1C(F)(F)F` [Example A11, 1-((R)-3-{(S)-3-[4-(6-Methoxy-5-trifluoromethyl-pyridin-3-yl)-quinolin-6-yloxy]-pyrrolidine-1-carbonyl}-pyrrolidin-1-yl)-ethanone], the IC50 was determined as 257 nM at PI3K alpha and 5 nM on PI3K delta.

As for `CS(=O)(=O)c1ncc(-c2ccnc3ccc(O[C@H]4CCN(C(=O)C5CCOCC5)C4)cc23)cc1C(F)(F)F` [Example A37, {(S)-3-[4-(6-Methanesulfonyl-5-trifluoromethyl-pyridin-3-yl)-quinolin-6-yloxy]-pyrrolidin-1-yl}-(tetrahydro-pyran-4-yl)-methanone], the IC50 worked out at 745 nM at PI3K alpha and 43 nM on PI3K delta.

For `COc1ncc(-c2ccnc3ccc(O[C@H]4CCN(C(=O)c5ccc(=O)n(C)c5)C4)cc23)cc1C` [Example A32, 5-{(S)-3-[4-(6-Methoxy-5-methyl-pyridin-3-yl)-quinolin-6-yloxy]-pyrrolidine-1-carbonyl}-1-methyl-1H-pyridin-2-one], the IC50 at PI3K alpha worked out at 851 nM; on PI3K delta it was 21 nM.

On to `Cc1cc(-c2ccnc3ccc(O[C@H]4CCN(C(=O)C5CCOCC5)C4)cc23)cnc1S(C)(=O)=O` [Example A33, {(S)-3-[4-(6-Methanesulfonyl-5-methyl-pyridin-3-yl)-quinolin-6-yloxy]-pyrrolidin-1-yl}-(tetrahydro-pyran-4-yl)-methanone], for which the IC50 at PI3K alpha is 3370 nM; at PI3K delta, 25 nM.

As for `COc1ncc(-c2ccnc3ccc(O[C@H]4CCN(C(=O)C5CCS(=O)(=O)CC5)C4)c(C)c23)cc1C(F)F` [Example B4, {(S)-3-[4-(5-Difluoromethyl-6-methoxy-pyridin-3-yl)-5-methyl-quinolin-6-yloxy]-pyrrolidin-1-yl}-(1,1-dioxo-hexahydro-1lambda*6*-thiopyran-4-yl)-methanone], the 50% inhibitory concentration (IC50) at PI3K alpha is 177 nM; on PI3K delta, 5 nM.

Regarding `COc1ncc(-c2ccnc3ccc(O[C@H]4CCN(C(=O)C5CCS(=O)(=O)CC5)C4)cc23)cc1C#N` [Example A22, 5-{6-[(S)-1-(1,1-Dioxo-hexahydro-1lambda*6*-thiopyran-4-carbonyl)-pyrrolidin-3-yloxy]-quinolin-4-yl}-2-methoxy-nicotinonitrile], the results for the IC50 on PI3K alpha and at PI3K delta were 364 nM and 8 nM, respectively.

Take `CCC(=O)N1CC[C@H](Oc2ccc3nccc(-c4cnc(OC)c(C)c4)c3c2)C1` [Example A2, 1-{(S)-3-[4-(6-Methoxy-5-methyl-pyridin-3-yl)-quinolin-6-yloxy]-pyrrolidin-1-yl}-propan-1-one]: the IC50 on PI3K alpha was 264 nM; on PI3K delta, less than 3 nM.

As to `CS(=O)(=O)c1ncc(-c2ccnc3ccc(O[C@H]4CCN(C(=O)C5CCOCC5)C4)cc23)cc1Cl` [Example A28, {(S)-3-[4-(5-Chloro-6-methanesulfonyl-pyridin-3-yl)-quinolin-6-yloxy]-pyrrolidin-1-yl}-(tetrahydro-pyran-4-yl)-methanone], the IC50 turned out to be 1390 nM on PI3K alpha and 14 nM on PI3K delta.
